Experiments:
C3aR [1] = molecular target: T1, C3aR (Homo sapiens, UniProt Q16581); experiment: Antagonism of agonist 3-induced iCa2+ release in HMDMs (Schild analysis); type: cell-based; parameters: Concentration-dependent Ca^2+ release in human monocyte-derived macrophages (HMDMs); endogenous in cells; host or cells: primary human monocyte-derived macrophages (HMDMs)
T1 sequence (Q16581 1-482): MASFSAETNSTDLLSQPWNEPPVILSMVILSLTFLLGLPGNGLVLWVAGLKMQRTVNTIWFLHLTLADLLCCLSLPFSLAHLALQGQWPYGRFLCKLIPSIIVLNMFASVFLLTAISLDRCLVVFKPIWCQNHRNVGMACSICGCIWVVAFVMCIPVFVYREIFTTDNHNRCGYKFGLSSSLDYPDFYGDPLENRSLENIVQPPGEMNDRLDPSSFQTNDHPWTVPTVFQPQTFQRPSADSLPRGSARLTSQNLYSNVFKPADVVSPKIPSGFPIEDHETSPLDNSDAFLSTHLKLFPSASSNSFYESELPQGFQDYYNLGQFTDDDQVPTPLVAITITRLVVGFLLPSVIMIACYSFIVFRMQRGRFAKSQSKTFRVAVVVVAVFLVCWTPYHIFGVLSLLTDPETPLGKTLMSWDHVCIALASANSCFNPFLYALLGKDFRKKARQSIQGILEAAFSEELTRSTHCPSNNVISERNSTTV
Experimental: HMDMs were seeded to a 96-well clear-bottom black-wall assay plate at a density of 5 × 10^4 cells per well and allowed to adhere overnight. Prior to assay, cells were incubated with dye-loading buffer (Hank’s balance salt solution (HBSS) buffer, 4 μM Fluo-3 AM, 25 μl Pluronic acid F-127 and 1% fetal bovine serum) for 1 h at 37 °C. Cells were then washed once with assay buffer (HBSS supplemented with 2.5 mM probenecid and 20 mM HEPES, pH 7.4). Intracellular calcium release was monitored using a fluorescence imaging plate reader (excitation 495 nm, emission 520 nm). The percentage responses were plotted against logarithmic concentrations of each test compound[42].

C3aR [2] = molecular target: T2, C3aR (Rattus norvegicus, UniProt O55197); experiment: Antagonism of BR103-induced rat paw edema by oral C3aR antagonist; type: in vivo
T2 construct: characterize for the first time a C3aR-induced innate immune response in vivo in rats; from tissue; host or cells: live male Wistar rats, hind paw
T2 sequence (O55197 1-473): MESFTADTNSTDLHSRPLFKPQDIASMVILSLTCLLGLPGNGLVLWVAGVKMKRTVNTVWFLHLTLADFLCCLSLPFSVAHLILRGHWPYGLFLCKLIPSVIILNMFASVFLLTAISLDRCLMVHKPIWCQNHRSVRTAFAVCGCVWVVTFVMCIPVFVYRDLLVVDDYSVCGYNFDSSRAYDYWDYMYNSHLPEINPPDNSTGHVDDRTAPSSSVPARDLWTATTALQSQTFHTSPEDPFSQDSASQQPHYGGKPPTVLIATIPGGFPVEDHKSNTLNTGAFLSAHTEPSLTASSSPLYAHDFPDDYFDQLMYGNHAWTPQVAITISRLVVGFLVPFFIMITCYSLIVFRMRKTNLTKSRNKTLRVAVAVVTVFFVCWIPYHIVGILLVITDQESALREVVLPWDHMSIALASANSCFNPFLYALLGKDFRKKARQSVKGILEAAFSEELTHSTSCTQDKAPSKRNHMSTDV
Experimental: Male Wistar rats (8–9 weeks) were injected with BR103 (3, 350 μg in 100 μL isotonic saline) into the plantar surface of both hind paw pads using a 30G needle. The inhibitor cromolyn (20 mg/kg in 5% DMSO) was injected subcutaneously 30 min before the agonist. The antagonist BR111 (6, 5–20 mg/kg in olive oil) was administered orally as a single dose 2 h before the agonist. Paw thickness and width were measured using digital calipers (WPI) at 0, 0.5, 2, 6 and 24 h after agonist BR103 administration. Hind paw size is expressed as % change in area from baseline after 0.5 h and then normalized against maximum swelling induced by agonist alone. Researchers were not blinded to treatments given.
Rat paw tissue was collected and fixed in 4% paraformaldehyde (pH 7.4) for 2 h in the cold room (4 °C). The rat paw tissue was then transferred into falcon tubes containing 30% sucrose solution in PBS and left overnight in the cold room. The next day, rat paw tissue was embedded with the Optimal Cutting Temperature compound (OCT, Sakura Finetek, USA) and stored in the −80 °C freezer before being used for making cryo-sections for histological analysis. Frozen sections of 5 microns were prepared using a cryostat-microtome (Leica Biosystems, Germany) and stained using standard protocols on the same day. In normal histological staining, such as with alcian blue and safranin O and hematoxylin and eosin (H&E), samples were briefly washed with distilled water before staining. In alcian blue and safranin O, samples were stained with 0.1% alcian blue (Sigma-Aldrich, USA) and 0.5% safranin O (Sigma-Aldrich, USA) before being mounted in mounting medium. In H&E, samples were stained with hematoxylin (Sigma-Aldrich, USA) and 0.1% eosin (Sigma-Aldrich, USA) before being mounted in mounting medium. In immunohistochemistry, samples were briefly rinsed with PBS to remove OCT and incubated with blocking medium (PBS, 0.1% triton X-100, 10% horse serum) for 1 h at room temperature. Samples were incubated with primary antibody medium (PBS, 4% horse serum, 1:200 histamine or 1:200 of tryptase or 1:150 ED1 or 1:200 ED2 antibodies) overnight at 4 °C. The next day, samples were washed with PBS and were incubated with the secondary antibody medium (PBS, 4% horse serum, detection antibody 1:1000) for 1 h at room temperature. The samples were briefly rinsed, dried and counterstained with DAPI (Invitrogen, Australia). Primary antibodies for histamine (Sigma-Aldrich, USA, H2403, monoclonal rabbit anti-rat IgG, 1: 200), tryptase (Abcam, Australia, ab2378, monoclonal mouse anti-rat IgG, 1:200), ED1 (Serotec, UK, MCA341R, monoclonal mouse anti-rat, 1:150), ED2 (Serotec, UK, MCA3424R, monoclonal mouse anti-rat, 1:200) were purchased from commercial sources. Secondary detection antibody was purchased from (Invitrogen, Australia). ED1 & ED2 positive cells were quantified using FIJI/ImageJ 1.42q software, U.S. National Institutes of Health, Bethesda, MD, USA[44]. All microscope images were obtained using an Olympus BX-51 upright microscope with Olympus DP-71 12Mp colour camera, utilizing DP Capture and DP Manager software packages (Olympus, Tokyo, Japan). Researchers who performed histological analysis and scoring were blinded to the sample identity.
Rat paw tissues were collected and immediately frozen with liquid nitrogen. The frozen rat paw tissue samples were weighed and crushed into smaller pieces with a mortar and pestle in liquid nitrogen. […]

Mode of antagonism of agonist 3-induced Ca2+ release (C3aR [1]): insurmountable antagonism
Schild plot slope (C3aR [1]; agonist 3 with 0–1000 nM antagonist 6, pre-treated 30 min, r2 = 0.99): 0.77 ± 0.05
Effect on BR103-induced mast cell activation and degranulation and histamine secretion (C3aR [2]; 20 mg/kg p.o., 2 h prior, 0.5 h after agonist): attenuated
Effect on BR103-induced neutrophil activation (MPO activity) (C3aR [2]; 20 mg/kg p.o., 2 h prior, 6 h after BR103): attenuated neutrophil activation at 6 h
Effect on BR103-induced paw edema (C3aR [2]; oral pretreatment 2 h before BR103 350 µg/paw i.pl., 5–20 mg/kg p.o., swelling at 30 min): strongly inhibited acute rat paw edema
Structure (SMILES): N=C(N)NCCCC(NC(=O)c1ccc(C(c2ccccc2)c2ccccc2)s1)C(=O)O (stereo not shown) [Compound 6]
Effect on BR103-induced infiltration of ED1 macrophages (C3aR [2]; 20 mg/kg p.o., 2 h prior, 0.5 h): prevented the increased infiltration of inflammatory ED1 macrophages
Effect on BR103-induced proinflammatory cytokine and chemokine gene expression (C3aR [2]; 20 mg/kg p.o., 2 h prior, 30 min): suppression of BR103-induced gene expression of proinflammatory cytokines and chemokines
